The results in this text go back to patent US20250295800A1, “CONJUGATE OF A SINGLE DOMAIN ANTIBODY, A SAPONIN AND AN EFFECTOR MOLECULE, PHARMACEUTICAL COMPOSITION COMPRISING THE SAME, THERAPEUTIC USE OF SAID PHARMACEUTICAL COMPOSITION” (SAPREME TECHNOLOGIES B.V., priority 2021, published 2025).

Where two headings read alike, the source gives them in different places.

In data set [1] the test system is endosomal escape of effector molecule. As to the kind of experiment: Endosomal escape enhancing activity of saponins (cell-based assays, in vivo models). The settings on record: in vivo animal tumor models, LDL lowering therapy models, free or cleavably conjugated saponin.
The nature of data set [2]: Release kinetic assay of saponin from linker at various pH. Particulars: pH 4.0, 37° C. Format: physicochemical. Here is the method: SO1861-SC-Mal (blocked) (saponin covalently coupled to the linker through an acid-labile semicarbazone (sc) bond) was tested for efficient pH sensitive release with a release kinetic assay and compared with release kinetics for SO1861-EMCH (blocked) (saponin covalently coupled to the linker through an acid-labile hydrazone bond). The assay was performed in buffers with pH 7.4, pH 6.0 pH, pH 5.0, pH 4.0 at 37° C. for 24 hours.

Data set [3] is described as follows: Critical micellar concentration (CMC) of saponins, ANS fluorimetric method. Format: physicochemical. The settings on record: for CMC: QS saponins derived from Quillaja saponaria. The protocol:
The critical micellar concentration (CMC) of saponin SO1861 derived from Saponaria officinalis (SO) and QS saponins derived from Quillaja saponaria (QS) (Table A5) was determined by the method of DeVendittis et al. (A fluorimetric method for the estimation of the critical micelle concentration of surfactants, Analytical Biochemistry, Volume 115, Issue 2, August 1981, Pages 278-286) as follows:
The emission spectrum of 8-Anilinonaphthalene-1-sulfonic acid (ANS) in either purified water (MQ) or PBS (Dulbecco's PBS+/+) was determined at dry weight concentrations of saponins ranging from […] to cover the range below and above the CMC. Above the CMC, the fluorescence yield of ANS increases and the wavelength of maximum emission decreases due to portioning of the fluorescent dye into micelles. Fluorescence yields were recorded on a Fluoroskan Ascent FL (Thermo Scientific) at an excitation wavelength of 355 nm, and an emission wavelength of 460 nm. 6 μg at a concentration of 75.86 μM of ANS were used per sample and measurement.

Data set [4] relates to MDA-MB-468 cells (HER2-/EGFR++/CD71+). As to the kind of experiment: Cell killing (MTS) assay on MDA-MB-468 cells. Format: cell-based, human. Here is the method: (§1) After treatment the cells were incubated for 72 hr at 37° C. before the cell viability was determined by a MTS-assay, performed according to the manufacturer's instruction (CellTiter 96@AQueous One Solution Cell Proliferation Assay, Promega). Briefly, the MTS solution was diluted 20× in DMEM without phenol red (PAN-Biotech GmbH) supplemented with 10% FBS. The cells were washed once with 200 μL/PBS well, after which 100 μL diluted MTS solution was added/well. The plate was incubated for approximately 20-30 minutes at 37° C. Subsequently, the OD at 492 nm was measured on a Thermo Scientific Multiskan FC plate reader (Thermo Scientific). For quantification the background signal of ‘medium only’ wells was subtracted from all other wells, before the cell viability percentage of treated/untreated cells was calculated, by dividing the background corrected signal of treated wells over the background corrected signal of the untreated wells (×100).

Data set [5] relates to A2058 cells (EGFR-/HER2+/-/CD71+). As to the kind of experiment: Cell viability / cell killing (MTS) assay on A2058 cells. Format: cell-based, human. Here is the method: (§2) Cells were seeded in a 96 well plate at 5.000-10.000 c/w in 100 μL/well and incubated overnight at 37° C. The next day 10× concentrated treatment-mix samples were prepared in PBS, which contain antibody-conjugated SO1861 (i.e. a ‘binding molecule’ or an ‘endosomal escape enhancing conjugate’ of the invention) and targeted-toxin (i.e. a ‘binding molecule’) both at 10× final concentration. The media was removed from the cell culture plate and replaced by 180 μL culture media, followed by the addition of 20 μL treatment-mix/well. For control, 10× treatment-mix samples were prepared that contained the corresponding concentrations of only antibody-conjugated SO1861, only antibody, only SO1861, only targeted-toxin, or PBS without compound as vehicle control. After treatment the cells were incubated for 72 hr at 37° C. before the cell viability was determined by a MTS-assay, performed according to the manufacturer's instruction (CellTiter 96® AQueous One Solution Cell Proliferation Assay, Promega). Briefly, the MTS solution was diluted 20× in DMEM without phenol red (PAN-Biotech GmbH) supplemented with 10% FBS (PAN-Biotech GmbH). The cells were washed once with 200 μL PBS per well, after which 100 μL diluted MTS solution was added per well. The plate was incubated for approximately 20-30 minutes at 37° C. Subsequently, the optical density at 492 nm was measured on a Thermo Scientific Multiskan FC plate reader (Thermo Scientific). For quantification the background signal of ‘medium only’ wells was subtracted from all other wells, before the ratio of untreated/treated cells was calculated, by dividing the background corrected signal of untreated wells over the background corrected signal of the treated wells.
as §1

Data set [6] relates to SK-BR-3 cells (HER2++/EGFR+/CD71+). As to the kind of experiment: Cell killing (MTS) assay on SK-BR-3 cells. It is filed as cell-based, human. Here is the method: as §1
The test system of data set [7] is A431 cells (EGFR++/HER2+/-/CD71+). As to the kind of experiment: Cell viability / cell killing (MTS) assay on A431 cells. It is filed as cell-based, human. The protocol:
as §2, §1

The target of a further data set is EGFR (human) (UniProt P00533). As to the kind of experiment: cell-based or functional assay.

SO1730: in data set [1], the “endosomal escape enhancing activity” value is recorded as “activity was confirmed”.
The same measure, in the same setting: the result for `C[C@@H]1O[C@@H](O[C@H]2[C@H](OC(=O)[C@]34CCC(C)(C)C[C@H]3C3=CC[C@@H]5[C@@]6(C)CC[C@H](O[C@H]7O[C@H](C(=O)O)[C@@H](O)[C@H](O[C@@H]8OC[C@@H](O)[C@H](O)[C@H]8O)[C@H]7O[C@@H]7O[C@H](CO)[C@H](O)[C@H](O)[C@H]7O)[C@@](C)(C=O)[C@@H]6CC[C@@]5(C)[C@]3(C)CC4)O[C@H](C)[C@H](O[C@@H]3O[C@H](C)[C@@H](O)[C@H](O)[C@H]3O)[C@@H]2O)[C@H](O)[C@H](O)[C@H]1O[C@@H]1OC[C@@H](O)[C@H](O[C@@H]2OC[C@@H](O)[C@H](O)[C@H]2O)[C@H]1O` [SA1641] reads “activity was confirmed”.
Turning to `CC(=O)OC1C(C)OC(OC2C(C)OC(OC(=O)[C@]34CCC(C)(C)CC3C3=CCC5[C@@]6(C)CC[C@H](OC7OC(C(=O)O)C(O)C(OC8OCC(O)C(O)C8O)C7OC7OC(CO)C(O)C(O)C7O)[C@@](C)(C=NNC(=O)CCCCCN7C(=O)CC(SCCO)C7=O)C6CC[C@@]5(C)[C@]3(C)C[C@H]4O)C(OC3OC(C)C(OC4OCC(O)C(OC5OC(CO)C(O)C(O)C5O)C4O)C(O)C3O)C2O)C(O)C1OC1OCC(O)C(O)C1O` (stereo partly shown) [SO1861-EMCH (blocked)], the “time to 50% release of saponin” value in data set [2] came out at 12 h.
On to `CCC(C)C(CC(O)CC(=O)OC1C(C)OC(OC(=O)C23CCC(C)(C)CC2C2=CCC4C5(C)CCC(OC6OC(C(=O)O)C(O)C(OC7OCC(O)C(O)C7O)C6OC6OC(CO)C(O)C(O)C6O)C(C)(C=O)C5CCC4(C)C2(C)CC3O)C(OC2OC(C)C(OC3OCC(O)C(OC4OCC(O)(CO)C4O)C3O)C(OC3OC(CO)C(O)C(O)C3O)C2O)C1O)OC(=O)CC(O)CC(OC1OC(CO)C(O)C1O)C(C)CC` (stereo not shown) [QS18, QS-18], for which the “CMC” value in data set [3] amounted to 68 ± 7 µM.
Regarding `CC(=O)O[C@@H]1[C@H](O[C@@H]2O[C@@H](C)[C@H](O)[C@@H](O)[C@H]2O)[C@@H](O[C@@H]2O[C@@H](C)[C@H](O[C@@H]3OC[C@@H](O)[C@H](O[C@@H]4OC[C@](O)(CO)[C@H]4O)[C@H]3O)[C@@H](O[C@@H]3O[C@H](CO)[C@@H](O)[C@H](O)[C@H]3O)[C@H]2O)[C@H](OC(=O)[C@]23CCC(C)(C)C[C@H]2C2=CC[C@@H]4[C@@]5(C)CC[C@H](O[C@@H]6O[C@H](C(=O)O)[C@@H](O)[C@H](O[C@@H]7OC[C@@H](O)[C@H](O)[C@H]7O)[C@H]6O[C@@H]6O[C@H](CO)[C@H](O)[C@H](O)[C@H]6O)[C@@](C)(C=O)[C@@H]5CC[C@@]4(C)[C@]2(C)C[C@H]3O)O[C@@H]1C` [QS7, QS-7], the “CMC” value in data set [3] is 230 ± 25 µM.
Regarding SO1772, the “endosomal escape enhancing activity” value in data set [1] is “activity was confirmed”.
Consider QS-17 [QS17], for which, in data set [3], the “CMC” value came to 70 ± 7 µM.
Regarding `CC(=O)OC1C(C)OC(OC2C(C)OC(OC(=O)[C@]34CCC(C)(C)CC3C3=CCC5[C@@]6(C)CC[C@H](OC7OC(C(=O)O)C(O)C(OC8OCC(O)C(O)C8O)C7OC7OC(CO)C(O)C(O)C7O)[C@@](C)(C=O)C6CC[C@@]5(C)[C@]3(C)C[C@H]4O)C(OC3OC(C)C(OC4OCC(O)C(OC5OCC(O)C(O)C5O)C4O)C(O)C3O)C2O)C(O)C1OC1OCC(O)C(O)C1O` (stereo partly shown) [SO1832], the “endosomal escape enhancing activity” value in data set [1] is “activity was confirmed”.
Same read-out and setting: the result for GE1741 reads “activity was confirmed”.
With QS-21 [QS21], the “CMC” value in data set [3] was 75 ± 8 µM. Also, the “endosomal escape enhancing activity” value in data set [1] is listed as “activity was confirmed”.
Consider SO1861, for which the IC50 in data set [4] (MDA-MB-468 (EGFR++), SO1861 titrated on fixed 50 pM VHH-EGFR-dianthin) was found to be 0.3 µM; in data set [4] (MDA-MB-468 (EGFR++), titrated on fixed 1 pM or 5 pM bivalentVHH-EGFR-dianthin), 1 µM; in data set [4] (MDA-MB-468 (HER2-/CD71+), SO1861 titrated on fixed 50 pM VHH-CD71-dianthin), 0.2 µM; in data set [5] (A2058 (CD71+), SO1861 titrated on fixed 50 pM VHHCD71-dianthin), 0.2 µM; in data set [5] (A2058 (HER2+/-), SO1861 titrated on fixed 50 pM VHH-HER2-dianthin), 0.7 µM; in data set [6] (SK-BR-3 (EGFR+), SO1861 titrated on fixed 50 pM VHH-EGFR-dianthin), 0.7 µM. The IC50 in data set [6] (SK-BR-3 (HER2++/CD71+), SO1861 titrated on fixed 50 pM VHH-CD71-dianthin) was 0.2 µM; in data set [6] (SK-BR-3 (HER2++/CD71+), SO1861 titrated on fixed 50 pM VHH-HER2-dianthin), 0.2 µM; in data set [7] (A431 (CD71+), SO1861 titrated on fixed 50 pM VHHCD71-dianthin, read-out: cell killing IC50), 0.2 µM; in data set [7] (A431 (EGFR++), SO1861 titrated on fixed 50 pM VHHEGFR-dianthin, read-out: cell killing IC50), 0.4 µM; in data set [7] (A431, SO1861 alone, read-out: SO1861 tolerated concentration IC50), 1 µM. Also, the “cell killing IC50” value is given as “no enhanced activity compared to SO1861 alone” in data set [4] (MDA-MB-468 (HER2-/CD71+), SO1861 titrated on fixed 50 pM VHH-HER2-dianthin); “no activity” in data set [5] (A2058 (EGFR-), SO1861 titrated on fixed 50 pM VHHEGFR-dianthin); “no activity” in data set [7] (A431 (HER2+/-), SO1861 titrated on fixed 50 pM VHH-HER2-dianthin). For the same molecule, the CMC value in data set [3] (native SO1861 in PBS) stood at 185 µM. In addition, the “endosomal escape enhancing activity” value in data set [1] is “activity was confirmed”.
With SO1904, the “endosomal escape enhancing activity” value in data set [1] is on record as “activity was confirmed”.
For the molecule `CC(=O)OC1C(C)OC(OC2C(C)OC(OC(=O)[C@]34CCC(C)(C)CC3C3=CCC5[C@@]6(C)CC[C@H](OC7OC(C(=O)O)C(O)C(OC8OCC(O)C(O)C8O)C7OC7OC(CO)C(O)C(O)C7O)[C@@](C)(/C=N/NC(=O)CCCCCN7C(=O)C=CC7=O)C6CC[C@@]5(C)[C@]3(C)C[C@H]4O)C(OC3OC(C)C(OC4OCC(O)C(OC5OC(CO)C(O)C(O)C5O)C4O)C(O)C3O)C2O)C(O)C1OC1OCC(O)C(O)C1O` (stereo partly shown) [SO1861-EMCH], the cell killing result in data set [5] (A2058 (EGFR-), titrated on fixed 5 pM bivalent VHH-EGFR-dianthin) is given as “not effective”; in data set [5] (A2058 (EGFR-), titrated on fixed 10 pM matuzumab-dianthin) it was “not effective”. Further, the IC50 in data set [5] (A2058 (EGFR-/CD71+), titrated on fixed 10 pM CD71mab-saporin) was 1.5 µM; in data set [7] (A431 (EGFR++), titrated on fixed 5 pM bivalent VHH-EGFR-dianthin, read-out: cell killing IC50), 1.5 µM; in data set [7] (A431 (EGFR++), titrated on fixed 10 pM cetuximab-saporin, read-out: cell killing IC50), 1 µM; in data set [7] (A431 (EGFR++), titrated on fixed 10 pM matuzumab-dianthin, read-out: cell killing IC50), 1.5 µM; in data set [7] (A431 (EGFR++/CD71+), titrated on fixed 10 pM CD71mab-saporin, read-out: cell killing IC50) it was 2 µM.
As for SO1700, the “endosomal escape enhancing activity” value in data set [1] is given as “activity was confirmed”.
Molecule cetuximab-saporin (antibody) came in with a cell killing on MDA-MB-468 (EGFR++), alone with EGFR (human) of 300 pM.
